Source: patent US4954513A, “Leukotriene antagonists” (SmithKline Beecham Corporation, priority 1988, dated 1990)

target: T1, leukotriene induced contraction of guinea pig tracheal tissues (Cavia porcellus, UniProt Q2NNR5); assay: Inhibition of leukotriene (LTD4) induced contraction of guinea pig tracheal spiral strips in vitro; format: cell-based; details: LTD4 concentration-response on guinea pig tracheal strips, 30 min pretreatment with test compound, meclofenamic acid 1uM; EC30 shift; current average data; read-out: -LogKB (converted)
T1 construct: Guinea pig (adult male albino Hartley strain) tracheal spiral strips; from tissue; host or cells: guinea pig (adult male albino Hartley) tracheal spiral strips
T1 sequence (Q2NNR5 1-340): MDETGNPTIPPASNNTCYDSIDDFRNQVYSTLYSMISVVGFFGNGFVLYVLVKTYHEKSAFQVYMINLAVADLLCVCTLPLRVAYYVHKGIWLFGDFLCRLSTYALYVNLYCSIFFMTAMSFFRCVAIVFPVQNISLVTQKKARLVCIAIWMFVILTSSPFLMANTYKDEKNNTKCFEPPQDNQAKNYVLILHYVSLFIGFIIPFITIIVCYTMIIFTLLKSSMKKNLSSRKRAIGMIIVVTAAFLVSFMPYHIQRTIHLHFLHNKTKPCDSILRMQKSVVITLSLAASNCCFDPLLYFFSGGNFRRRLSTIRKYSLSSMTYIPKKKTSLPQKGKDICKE
Procedure: The leukotriene antagonist activity of the compounds of this invention is measured by the ability of the compounds to inhibit the leukotriene induced contraction of guinea pig tracheal tissues in vitro. The following methodology was employed: In vitro: Guinea pig (adult male albino Hartley strain) tracheal spiral strips of approximate dimensions 2 to 3 mm cross sectional width and 3.5 cm length were bathed in modified Krebs buffer in jacketed 10 ml tissue bath and continuously aerated with 95% O2 /5% CO2. The tissues were connected via silk suture to force displacement transducers for recording isometric tension. The tissues were equilibrated for 1 hr., pretreated for 15 minutes with meclofenamic acid (1uM) to remove intrinsic prostaglandin responses, and then pretreated for an additional 30 minutes with either the test compound or vehicle control. A cumulative concentration-response curve for LTD4 on triplicate tissues was generated by successive increases in the bath concentration of the LTD4. In order to minimize intertissue variability, the contractions elicited by LTD4 were standardized as a percentage of the maximum response obtained to a reference agonist, carbachol (10uM). Calculations: The averages of the triplicate LTD4 concentration response curves both in the presence and absence of the test compound were plotted on log graph paper. The concentration of LTD4 needed to elicit 30% of the contraction elicited by carbachol was measured and defined as the EC30. The -log KB value for the test compound was determined by the following equations: [formula] […] The antagonist activity of representative compounds of this invention is listed in Table I. The -log KB values were calculated from the above protocol. Where compounds were tested more than once, the -log KB values given here represent the current average data.

Structure (SMILES)	Kd [nM]
O=C(CCSC(c1ccccc1CCCCCCCCc1ccccc1)C(O)C(=O)O)NS(=O)(=O)c1ccccc1 (stereo not drawn) [2-Hydroxy-3-[2-(N-phenylsulfonylcarbamoylethyl)thio]-3-[2-(8 phenyloctyl)phenyl]propanoic acid]	39.8
O=C(O)CCSC(CC(=O)NS(=O)(=O)c1ccccc1)c1ccccc1CCCCCCCCc1ccccc1 (stereo not drawn) [Compound 2, N-[3-(Carboxyethylthio)-3-[2-(8-phenyloctyl)phenyl]]propionylbenzenesulfonamide]	316
CS(=O)(=O)NC(=O)CC(SCCC(=O)O)c1ccccc1CCCCCCCCc1ccccc1 (stereo not drawn) [Compound 3, N-[3-(carboxyethylthio)-3-[2 (8 phenyloctyl)phenyl]propionyl]methanesulfonamide]	398
